Measured values reported in patent US8048869B2, “Pharmaceutical composition for use in hormone replacement therapy” (Pantarhei Bioscience B.V., priority 2001, dated 2011).

Legend:
nonpregnant ewes = details: intravenously administered; cited from earlier work
OVX-rats = assay: Endometrial proliferation after 4-week oral treatment (uterine weight, Ki67); format: in vivo, rat; details: 0.5 to […], 4 weeks (FIG. 5)
Source text: Endometrial proliferation was chosen as another relevant tissue-specific endpoint to determine the hormonal potency of estetrol after chronic (4-week), oral treatment in ovariectomized rats. An established 4-week animal model, also recommended for evaluation of agents for osteoporosis prevention and therapy, was used. […] 17α-ethinyl-estradiol (EE) and vehicle (1% ethanol/arachidis oil) served as additional controls in this bioassay.
Three months old female Sprague-Dawley rats were either sham-operated (Sham) or ovariectomized (OVX) one day prior to commencement of the dosing study as described in Example 2. Ten animals per treatment group were orally dosed once per day for four consecutive weeks. The dosing commenced 1 day after surgical removal of the ovaries and was administered by oral gavage using a syringe and stainless steel gavage needle at doses of 0.1 mg/kg /day EE, or either 2.5 or 0.5 mg/kg/day E4. Vehicle control was daily administered to one group of OVX-animals and sham-operated rats. After treatment, anesthetized rats were subjected to cardiac puncture and asphyxiated by CO2 inhalation. The uterine horns were isolated and weighed and then fixed in 4% formaldehyde at 4° C. […] Proliferative indices were determined by scoring positively labeled cells on Ki67 immunostained sections. Typically, for each datapoint 1000 luminal epithelial cells were evaluated.

ovariectomized rats = assay: Modified 7-day vaginal cornification bioassay with uterine wet weight; format: in vivo, rat; details: OVX rats, po, 7 days
Source text: Uterine weight increase in the rat was chosen as another relevant tissue-specific endpoint to determine the hormonal potency of estetrol (E4), particularly in relationship to its hormonal potency to induce vaginal cornification and to correct for vaginal atrophy. Orally (po) administered E4 was therefore tested in a modified 7-day vaginal cornification bioassay (see also example 1), including uterine wet weight measurements at necropsy, to account for vaginal and uterotrophic effects.
The uterotrophic response has been used for many years to assess estrogenic activity. The typical bioassay uses female rats with low levels of endogenous estrogens (e.g., ovariectomized adults or immature animals). In most assay designs the animals are dosed once or twice daily for 3 or 4 days, and twenty-four hours after the final dose the animals are killed, and the uteri excised and weighed. In the current bioassay, vaginal epithelial cornification, and uterine weight gain was evaluated in ovariectomized adult rats over a 7-day period. In this way, two distinct estrogen sensitive parameters could be evaluated concurrently.
Adult intact female CD rats were ovariectomized to induce estrogen deficiency. […] Castrate vaginal smears are indicative that complete ovariectomy was achieved. […] Animals were orally dosed, once daily for 7 consecutive days with vehicle control (10% ethanol/sesame oil) or either 0.1, 0.3, 1.0, or 3.0 mg/kg/day E4. Daily vaginal lavages continued to be obtained for 7 days after dosing was initiated in order to detect vaginal cornification, as an indication of an estrogenic response. A drop of vaginal washings was placed on a glass slide and examined by light microscopy to detect the presence or absence of cornified epithelial cells. The cells present in the vaginal washings were recorded. Vaginal lavages were obtained prior to dosing on days 0-6 and prior to necropsy on day 7.
On Study Day 7, following vaginal lavage 24 hours after the final dose, all rats were euthanized by CO2 asphyxiation. An abdominal incision was made and the uterus excised, blotted and weighed. The occurrence of vaginal cornification, indicative of an estrogenic response, is an “all or none” response. Therefore, data were expressed as the number of rats showing a vaginal estrogenic response (for one or more days) over the number of rats treated (ratio). A Z-test of proportions was used to compare the four test groups to the vehicle control group. Group means±SEM were also calculated for the uterine weights. […] Therefore, a Kruskal-Wallis non-parametric ANOVA on ranks was performed and significant differences across the four treatment groups and the vehicle control were determined using Dunn's method.

[1] = test system: morphine-dependent ovariectomized (OVX) rat; assay: Morphine-dependent OVX rat hot flush model, naloxone-induced tail skin temperature rise; format: in vivo
Protocol: The morphine-dependent ovariectomized (OVX) rat was used as a model for postmenopausal hot flush. The potency of estetrol (E4) to prevent tail skin temperature rises, normally accompanied by a drop in core body temp arature, after naloxone-induced opiate withdrawel was tested. 17α-ethinyl-estradiol (EE) and vehicle. (hydroxy propyl-beta-cyclodextrin 20% wt/vol) served as controls in this bioassay.
The morphine-dependent ovariectomized (OVX) rat model has been proposed by several investigators (Katovich et al, 1986, Maturitas, 67-76; Merchenthaler et al. 1998, Maturitas, 307-316) as an animal model for the hot flush. During opiate withdrawal with the morphine antagonist naloxone, tail skin temperature (TST) rises and this rise is accompanied by a drop in core body temperature. In addition, the temperature changes are accompanied by surges in LH and a transient tachycardia. These events are similar in magnitude and temporal nature to those observed in the menopausal hot flush.
Three days prior to the commencement of dosing, animals were anesthetized using a ketamine/xylazine anesthetic mixture and underwent a bilateral ovariectomy. […]
For the hot flush manipulations the animals were placed in a test cage. […] The tail-skin temperature was recorded until it was stable and the animals were then injected with naloxone HCl (1 mg/kg). […]

## C[C@]12CC[C@@H]3c4ccc(O)cc4CC[C@H]3[C@@H]1[C@@H](O)[C@@H](O)[C@@H]2O [E4, 1,3,5 (10)-estratrien-3,15α,16α,17β-tetrol]
Nonpregnant ewes
  potency in uterine vasodilation relative to estriol and 17β-estradiol: 15 to 30 times less potent
OVX-rats
  percentage of Ki67-positive luminal epithelial cells, dose trend: declined with increasing doses
Ovariectomized rats; 0.1 mg/kg/day
  Uterine weight Mean: 149.2 mg
  Uterine weight Significantly different from vehicle (P < 0.05): no
  Vaginal Cornification Non-responders: 0
  Vaginal Cornification Significantly different from vehicle (P < 0.05): yes
  Vaginal Cornification responders: 8
Ovariectomized rats; 0.3 mg/kg/day
  Uterine weight Mean: 181.2 mg
  Uterine weight Significantly different from vehicle (P < 0.05): no
  Vaginal Cornification Non-responders: 0
  Vaginal Cornification Significantly different from vehicle (P < 0.05): yes
  Vaginal Cornification responders: 8
Ovariectomized rats; 1.0 mg/kg/day
  Uterine weight Mean: 253.7 mg
  Uterine weight Significantly different from vehicle (P < 0.05): yes
  Vaginal Cornification Non-responders: 0
  Vaginal Cornification Significantly different from vehicle (P < 0.05): yes
  Vaginal Cornification responders: 8
Ovariectomized rats; 3.0 mg/kg/day
  Uterine weight Mean: 308.4 mg
  Uterine weight Significantly different from vehicle (P < 0.05): yes
  Vaginal Cornification Non-responders: 0
  Vaginal Cornification Significantly different from vehicle (P < 0.05): yes
  Vaginal Cornification responders: 8
[1]; po, 3.0 mg/kg/day (FIG. 3)
  suppressive response on TST compared with EE: suppressive response similar to the potent oral estrogen, 17α-ethinyl estradiol (EE)
[1]; po, 0.3, 1.0 and 3.0 mg/kg/day (FIG. 3)
  effect on naloxone-induced tail skin temperature (TST): attenuated the TST
